The target of experiment [1] is T1, Protein deacetylase HDAC6 (Mus musculus) (UniProt Q9Z2V5).
T1 sequence (whole entry): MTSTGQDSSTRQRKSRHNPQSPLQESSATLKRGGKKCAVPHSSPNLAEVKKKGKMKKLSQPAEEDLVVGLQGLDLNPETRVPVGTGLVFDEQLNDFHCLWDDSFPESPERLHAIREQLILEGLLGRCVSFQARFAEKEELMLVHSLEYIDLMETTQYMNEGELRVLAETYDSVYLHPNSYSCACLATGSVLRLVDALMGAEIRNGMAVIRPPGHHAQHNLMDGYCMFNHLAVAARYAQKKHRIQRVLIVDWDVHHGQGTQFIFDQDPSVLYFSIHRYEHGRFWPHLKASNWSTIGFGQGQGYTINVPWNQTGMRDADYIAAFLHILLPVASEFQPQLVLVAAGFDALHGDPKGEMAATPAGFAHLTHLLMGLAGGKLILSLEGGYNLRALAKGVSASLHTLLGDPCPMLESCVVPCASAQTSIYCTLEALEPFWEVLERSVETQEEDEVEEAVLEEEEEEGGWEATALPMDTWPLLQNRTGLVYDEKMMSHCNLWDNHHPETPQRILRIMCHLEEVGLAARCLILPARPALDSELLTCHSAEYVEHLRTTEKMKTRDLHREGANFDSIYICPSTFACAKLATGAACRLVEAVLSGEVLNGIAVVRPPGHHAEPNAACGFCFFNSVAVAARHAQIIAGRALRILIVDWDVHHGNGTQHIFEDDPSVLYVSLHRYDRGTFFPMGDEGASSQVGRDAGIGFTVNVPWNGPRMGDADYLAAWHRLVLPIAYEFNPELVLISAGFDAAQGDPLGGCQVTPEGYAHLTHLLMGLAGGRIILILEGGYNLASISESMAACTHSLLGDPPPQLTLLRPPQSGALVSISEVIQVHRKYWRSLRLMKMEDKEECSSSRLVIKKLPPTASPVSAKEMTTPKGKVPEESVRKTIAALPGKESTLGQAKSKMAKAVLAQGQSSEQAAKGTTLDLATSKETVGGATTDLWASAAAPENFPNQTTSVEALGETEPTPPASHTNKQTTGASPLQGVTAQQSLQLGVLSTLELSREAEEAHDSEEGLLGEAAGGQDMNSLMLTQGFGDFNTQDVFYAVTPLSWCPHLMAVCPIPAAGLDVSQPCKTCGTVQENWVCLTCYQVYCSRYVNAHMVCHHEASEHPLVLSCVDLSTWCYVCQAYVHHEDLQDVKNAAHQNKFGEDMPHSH
Description: In vivo inhibition of HDAC6 in bleomycin-induced idiopathic pulmonary fibrosis C57BL/6J mouse model assessed as increase in acetylated histone H4 level in lung at 50 mg/kg, ig administered via gavage and measured on day 14 by western blot analysis. As to conditions: time 14.0 day. Format: functional, organism-based. On the technique in general: In western blotting, separated proteins are transferred to a membrane and probed.

The target of another experiment is Histone deacetylase 2 (Homo sapiens, UniProt Q92769). Briefly: Inhibition of HDAC2 (unknown origin) incubated for 30 mins by fluorometric analysis.
Chain of Histone deacetylase 2 (Q92769 whole entry): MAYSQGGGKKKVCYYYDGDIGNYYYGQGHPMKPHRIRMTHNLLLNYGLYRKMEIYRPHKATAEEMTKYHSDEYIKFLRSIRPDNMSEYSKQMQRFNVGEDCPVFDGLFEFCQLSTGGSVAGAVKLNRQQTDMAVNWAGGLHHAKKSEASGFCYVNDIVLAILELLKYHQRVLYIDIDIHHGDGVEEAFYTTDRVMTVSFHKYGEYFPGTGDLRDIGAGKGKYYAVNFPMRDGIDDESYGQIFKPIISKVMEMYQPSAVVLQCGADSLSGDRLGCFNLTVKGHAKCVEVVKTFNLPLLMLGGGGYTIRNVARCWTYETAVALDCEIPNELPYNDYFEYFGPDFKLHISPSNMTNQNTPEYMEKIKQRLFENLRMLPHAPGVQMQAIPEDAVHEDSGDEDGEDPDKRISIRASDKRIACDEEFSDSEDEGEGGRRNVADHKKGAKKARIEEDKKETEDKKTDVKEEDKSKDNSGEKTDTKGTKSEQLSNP
In a further experiment the test system is NIH3T3. Briefly: Antiproliferative activity against mouse NIH/3T3 cells assessed as inhibition of cell growth incubated for 24 to 48 hrs by CCK8 assay. Format: functional, cell-based.
The subject of a further experiment is Mus musculus. Description: Anti-pulmonary fibrosis activity in bleomycin-induced idiopathic pulmonary fibrosis C57BL/6J mouse model assessed as decrease in lung damage by measuring decrease in collagen deposition in lung at 25 to 50 mg/kg, ig administered daily via gavage and measured on day 14 by Sirius red staining based analysis. Format: functional, organism-based. Particulars: dose 25-50 mg/kg, time 14.0 day.

Experiment [2] addresses T1, Protein deacetylase HDAC6 (Mus musculus). Briefly: In vivo inhibition of HDAC6 in bleomycin-induced idiopathic pulmonary fibrosis C57BL/6J mouse model assessed as increase in acetylated alpha-tubulin level in lung at 50 mg/kg, ig administered via gavage and measured on day 14 by western blot analysis. Particulars: time 14.0 day. Format: functional, organism-based.
Experiment [3] has the same target. Description: In vivo inhibition of HDAC6 in bleomycin-induced idiopathic pulmonary fibrosis C57BL/6J mouse model assessed as increase in acetylated histone H4 level in lung at 25 mg/kg, ig administered via gavage and measured on day 14 by western blot analysis. Format: functional, organism-based. Particulars: time 14.0 day.
The target of experiment [4] is T2, Protein deacetylase HDAC6 (Homo sapiens) (UniProt Q9UBN7).
T2 sequence (whole entry): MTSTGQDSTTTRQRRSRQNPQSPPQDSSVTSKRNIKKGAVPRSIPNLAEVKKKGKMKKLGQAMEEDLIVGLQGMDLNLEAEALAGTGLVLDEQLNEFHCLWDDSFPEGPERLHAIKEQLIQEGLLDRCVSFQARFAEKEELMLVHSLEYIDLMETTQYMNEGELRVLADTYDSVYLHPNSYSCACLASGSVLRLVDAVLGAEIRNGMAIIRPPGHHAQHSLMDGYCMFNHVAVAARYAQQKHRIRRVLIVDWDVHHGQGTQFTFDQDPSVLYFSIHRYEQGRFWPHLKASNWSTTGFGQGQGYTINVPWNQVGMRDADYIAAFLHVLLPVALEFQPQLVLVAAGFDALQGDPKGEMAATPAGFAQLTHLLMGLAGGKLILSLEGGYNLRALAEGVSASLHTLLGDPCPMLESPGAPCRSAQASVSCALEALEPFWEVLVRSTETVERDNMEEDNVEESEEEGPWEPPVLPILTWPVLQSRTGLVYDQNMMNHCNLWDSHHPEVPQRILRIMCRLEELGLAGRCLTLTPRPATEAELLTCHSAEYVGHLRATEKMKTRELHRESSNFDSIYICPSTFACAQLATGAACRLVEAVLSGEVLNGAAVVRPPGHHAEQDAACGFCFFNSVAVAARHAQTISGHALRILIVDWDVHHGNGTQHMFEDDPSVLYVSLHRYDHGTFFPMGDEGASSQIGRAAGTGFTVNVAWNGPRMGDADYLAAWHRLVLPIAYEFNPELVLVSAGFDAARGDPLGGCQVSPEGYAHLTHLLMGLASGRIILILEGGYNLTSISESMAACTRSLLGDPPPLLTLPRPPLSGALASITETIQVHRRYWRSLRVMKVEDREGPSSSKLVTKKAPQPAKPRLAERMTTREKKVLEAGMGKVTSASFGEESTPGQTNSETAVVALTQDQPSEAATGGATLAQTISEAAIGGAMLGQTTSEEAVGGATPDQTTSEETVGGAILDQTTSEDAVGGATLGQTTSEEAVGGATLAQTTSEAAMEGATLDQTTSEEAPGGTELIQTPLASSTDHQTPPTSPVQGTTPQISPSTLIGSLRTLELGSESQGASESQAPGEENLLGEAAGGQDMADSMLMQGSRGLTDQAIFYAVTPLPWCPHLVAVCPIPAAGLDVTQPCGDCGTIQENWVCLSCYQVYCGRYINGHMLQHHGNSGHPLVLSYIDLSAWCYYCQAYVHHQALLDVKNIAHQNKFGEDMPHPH
Description: Inhibition of HDAC6 in human RPMI-8226 cells assessed as increase in acetylated histone H3 level at 0.25 to 1 uM incubated for 24 hrs by western blot analysis. Format: cell-based. As to conditions: dose 0.25-1 µM.

In experiment [5] the target is T2, Protein deacetylase HDAC6 (Homo sapiens). Briefly: Inhibition of HDAC6 in human RPMI-8226 cells assessed as increase in acetylated histone H4 level at 0.25 to 1 uM incubated for 24 hrs by western blot analysis. The class given is cell-based. Particulars: dose 0.25-1 µM.

SMILES strings stand for the structures. The source made the active and inactive calls. The calls are words filed in the database; no cut-off is given here.

With `O=C(NO)c1ccc(CN2C(=O)C3=C(CCN(Cc4cccc(Cl)c4)C3)N3CCN=C23)cc1`, the inhibition result is “Active; Levels Lower Than The Positive Control, Acy-1215” in experiment [1]; “Active; Levels Lower Than The Positive Control, Acy-1215” in experiment [2]; “Active; Less Affected” in experiment [4]. Also, the half-maximal inhibitory concentration (IC50) (usually the concentration that inhibits the measured activity by half) is 642 nM against Histone deacetylase 2 and 890 nM in the experiment with NIH3T3. Further, the result in the experiment on Mus musculus was Active. The inhibition entry in experiment [3] is “inactive”. Besides, in experiment [5], the inhibition result is “Active”.

For the origin of these results see ChEMBL document CHEMBL6092154, “Design, synthesis, and evaluation of a novel TRAIL-activated HDAC6 inhibitor for the treatment of pulmonary fibrosis” (Bioorg Med Chem, 2024).
